Values of other authors in patent US12421243B2, “Pharmaceutically effective compounds inhibiting selectively the myosin 2 isoforms” (PRINTNET KERESKEDELMI ÉS SZOLGÁLTATÓ KFT., priority 2018, dated 2025).

How the values were obtained:
[1] = test system: myosin 1, myosin 5, and myosin 10; details: cited from earlier work
platelet myosin 2 = platelet myosin 2 (Homo sapiens, UniProt P35579); details: cited from earlier work
skeletal muscle myosin 2 = details: selectivity among myosin 2 isoforms; cited from earlier work
myosin 2 = myosin 2 inhibitors, review data; cited from earlier work

Sequence of platelet myosin 2 (P35579 whole entry, canonical isoform): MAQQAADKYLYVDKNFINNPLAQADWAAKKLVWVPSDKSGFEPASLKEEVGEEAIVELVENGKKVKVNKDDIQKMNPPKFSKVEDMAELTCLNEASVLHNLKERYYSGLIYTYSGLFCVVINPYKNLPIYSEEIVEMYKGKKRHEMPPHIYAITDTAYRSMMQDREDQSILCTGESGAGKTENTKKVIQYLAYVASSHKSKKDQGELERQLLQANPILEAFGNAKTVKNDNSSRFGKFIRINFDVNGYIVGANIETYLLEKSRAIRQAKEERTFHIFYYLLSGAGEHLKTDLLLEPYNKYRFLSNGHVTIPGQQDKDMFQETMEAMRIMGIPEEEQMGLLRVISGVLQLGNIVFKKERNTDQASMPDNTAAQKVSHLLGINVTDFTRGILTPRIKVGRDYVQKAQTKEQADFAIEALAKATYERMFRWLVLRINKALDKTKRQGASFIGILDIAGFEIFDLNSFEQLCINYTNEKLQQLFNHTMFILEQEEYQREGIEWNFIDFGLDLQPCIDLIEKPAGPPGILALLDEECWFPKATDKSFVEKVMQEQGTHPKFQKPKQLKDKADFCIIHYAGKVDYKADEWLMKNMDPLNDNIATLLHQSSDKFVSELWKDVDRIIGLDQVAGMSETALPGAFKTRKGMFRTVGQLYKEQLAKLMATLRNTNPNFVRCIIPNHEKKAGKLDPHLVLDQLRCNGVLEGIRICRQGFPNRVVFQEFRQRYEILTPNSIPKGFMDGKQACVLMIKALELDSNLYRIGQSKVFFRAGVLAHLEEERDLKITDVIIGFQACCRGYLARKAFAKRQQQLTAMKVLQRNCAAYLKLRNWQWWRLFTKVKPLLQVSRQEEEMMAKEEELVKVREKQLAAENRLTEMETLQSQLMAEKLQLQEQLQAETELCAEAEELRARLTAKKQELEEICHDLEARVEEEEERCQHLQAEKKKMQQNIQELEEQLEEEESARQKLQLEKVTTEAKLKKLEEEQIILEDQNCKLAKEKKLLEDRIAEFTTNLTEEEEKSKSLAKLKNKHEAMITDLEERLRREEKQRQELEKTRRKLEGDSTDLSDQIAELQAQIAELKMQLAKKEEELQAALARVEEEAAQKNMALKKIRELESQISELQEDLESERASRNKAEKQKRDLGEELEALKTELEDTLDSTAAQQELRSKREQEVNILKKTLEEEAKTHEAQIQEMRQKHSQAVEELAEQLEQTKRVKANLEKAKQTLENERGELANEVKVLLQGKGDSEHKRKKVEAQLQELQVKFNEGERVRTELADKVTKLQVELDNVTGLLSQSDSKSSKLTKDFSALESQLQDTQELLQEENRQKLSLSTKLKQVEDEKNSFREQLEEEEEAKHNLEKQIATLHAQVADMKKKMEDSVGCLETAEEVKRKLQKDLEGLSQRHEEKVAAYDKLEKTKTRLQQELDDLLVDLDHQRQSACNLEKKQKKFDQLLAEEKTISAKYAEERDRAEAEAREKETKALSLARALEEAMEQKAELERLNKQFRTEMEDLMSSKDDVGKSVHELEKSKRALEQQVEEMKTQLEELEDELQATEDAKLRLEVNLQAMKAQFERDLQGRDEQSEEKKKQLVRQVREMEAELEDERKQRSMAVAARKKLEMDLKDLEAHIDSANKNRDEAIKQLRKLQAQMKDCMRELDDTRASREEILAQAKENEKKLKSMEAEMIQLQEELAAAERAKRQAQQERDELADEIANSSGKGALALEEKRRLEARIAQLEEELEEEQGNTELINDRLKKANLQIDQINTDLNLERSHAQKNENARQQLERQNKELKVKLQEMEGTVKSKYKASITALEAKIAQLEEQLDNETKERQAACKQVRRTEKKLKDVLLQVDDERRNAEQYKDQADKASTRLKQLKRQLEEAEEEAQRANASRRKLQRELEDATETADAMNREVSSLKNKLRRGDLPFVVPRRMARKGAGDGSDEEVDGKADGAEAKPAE

Cc1ccc2c(c1)C(=O)[C@]1(O)CCN(c3ccccc3)C1=N2 [blebbistatin]
inhibition of myosin 1, myosin 5, and myosin 10 [1]: does not inhibit

Cc1ccc(S(=O)(=O)NCc2ccccc2)cc1 [BTS, N-Benzyl-p-toluenesulfonamide]
inhibition of platelet myosin 2 (platelet myosin 2): does not inhibit | inhibits fast muscle skeletal myosin-2 times more stronger than slow skeletal muscle myosin-2, myocardial myosin-2 or non-muscle myosin 2 (skeletal muscle myosin 2): 100 times | Binding strength (myosin 2): ~5 µM
